Drawing on PubChem BioAssay AID1919004 (Molecular Pharmacology Branch, DTP, NCI, 2023), this text covers viability, T/C and IC50 for eight compounds.

What is called viability, T/C is the ratio of treated to control. Broadly, the pIC50 is the negative decadic logarithm of the IC50, by convention in mol/L.

The structures appear in SMILES notation. pIC50: −log10 of the molar value. Several values for one entry are separate records, joined by “and”; a condition that tells them apart may be missing. Equal entries are not always repeated.

In the test the test system is 883617-216-R-J1-PDC complex spheroids, growth, % test/control. In words: Anticancer human tumor 883617-216-R-J1-PDC patient-derived bladder carcinoma cell line growth inhibition [AhR]. The settings on record: for viability, T/C: stronger effect = lower value. The source says:
Multicellular complex tumor spheroid response to aryl hydrocarbon receptor antagonists in combination with a variety of drugs and investigational agents in selected tumor cell lines
The current study was undertaken to assess response to aryl hydrocarbon receptor antagonists in combination with standard-of-care drugs and investigational agents in solid tumor complex spheroid models. Complex spheroids include a stromal component modeled by human endothelial cells (HUVEC) and fibroblasts modeled by human mesenchymal stem cells (MSCs). The concentration ranges selected for each drug and investigational agent were based upon clinically achievable concentrations if the clinical Cmax of the agent was known.
Compounds. The drugs and investigational agents: BAY 2416964 (NSC825713), GNF351 (NSC835774), CH-223191 (NSC835775), CPI-455 (NSC825282), aza-TdCyd (NSC777586), decitabine (NSC127716), belinostat (NSC758774), entinostat (NSC756642), pevonedistat (NSC761192), tazemetostat (NSC777109), talazoparib (NSC765396), olaparib (NSC753686), selinexor (NSC780203), nedisertib (M3814, NSC802822), bortezomib (NSC756655), venetoclax (NSC766270), doxorubicin (NSC123127), elimusertib (BAY189344, NSC800525), ceralasertib (AZD6738, NSC777638), TAK-243 (NSC785004), alisertib (NSC759677), etoposide (NSC141540), topotecan (NSC609699), eribulin (NSC707389), gemcitabine (NSC613327), carboplatin (NSC241240), cisplatin (NSC119875), and SN-38 (NSC673596) were obtained from the National Cancer Institute (NCI) Developmental Therapeutics Program Chemical Repository (32). The FDA-approved anticancer drug set is available from the Developmental Therapeutics Program at https://dtp.cancer.gov/organization/dscb/obtaining/available plates.htm. […] The stock solutions were prepared in dimethyl sulfoxide (DMSO, Sigma-Aldrich, St. Louis, MO, cat. D2650), except for the platinum compounds which were prepared in saline (Quality Biological, Gaithersburg, MD, cat. 114-055-101), at 800-fold the tested concentration and stored at -70 degrees C prior to their use. All drugs and investigational agents were tested over a range starting from a high concentration at or near the clinical Cmax and decreasing in half-log increments. If the clinical Cmax for an agent had not been determined, the highest concentration tested was 10 microM (Table 1).
Cell Culture. All cells were maintained in an incubator at 37 degrees C and 5% CO2 with 95% humidity. The PDC lines were cultured according to standard operating procedures established by the NCI PDMR (https://pdmr.cancer.gov). Briefly, all PDCs were thawed and cultured in Matrigel-coated flasks prepared with a working solution of 1X Ham's F-12 nutrient mix, without supplementation (Invitrogen, Waltham, MA, cat. 11765054), 100 U/mL penicillin-streptomycin (Invitrogen, cat. 15140122), and 2.5% Matrigel (Corning Inc., Corning, NY, cat. 354248) for the first three passages. All PDCs were cultured in complete DMEM/F-12 media containing advanced DMEM/F-12 (Invitrogen, cat. 12634028), 4.9% defined fetal bovine serum, heat inactivated (HyClone Laboratories Inc., Logan, UT, cat. SH30070.03HI), 389 ng/mL hydrocortisone (Sigma-Aldrich, cat. H4001), 9.7 ng/mL human EGF recombinant protein (Invitrogen, cat. PHG0313), 23.4 microg/mL adenine (Sigma-Aldrich, cat. A2786), 97.3 U/mL penicillin-streptomycin (Invitrogen, cat. 15140122), 1.9 mM L-glutamine (Invitrogen, cat. 25030081), and 9.7 microM Y-27632 dihydrochloride (Tocris Bioscience, Bristol, United Kingdom, cat. 1254). The PDCs were cultured in complete DMEM/F12 media without 10 microM Y-27632 dihydrochloride for at least two passages prior to the screen. The established cell lines NCI-H1341 and […] were cultured in DMEM/F-12, HEPES (Invitrogen, cat. 11330032), 5% defined fetal bovine serum (HyClone Laboratories Inc., cat. SH30070.03), ITS premix universal culture supplement [insulin (5 microg/mL), transferrin (5 microg/mL), and selenious acid (5 ng/mL)] […]

[1] abbreviates: curve of first compound, second compound 0.1 µM.
Setting [2] is: curve of first compound, second compound 0.316 µM.
[3] abbreviates: curve of first compound, second compound 1 µM.
Setting [4] is: curve of first compound, second compound 3.16 µM.
The mark [5] stands for this setting: curve of first compound, second compound 10 µM.
[6] abbreviates: second compound 0.1 µM, first compound 0.0316 µM.
The mark [7] stands for this setting: second compound 0.1 µM, first compound 0.1 µM.
Setting [8] is: second compound 0.1 µM, first compound 0.316 µM.
Setting [9] is: second compound 0.1 µM, first compound 1 µM.
Where [10] appears, read: second compound 0.316 µM, first compound 0.0316 µM.
The mark [11] stands for this setting: second compound 0.316 µM, first compound 0.1 µM.
The mark [12] stands for this setting: second compound 0.316 µM, first compound 0.316 µM.
[13] abbreviates: second compound 0.316 µM, first compound 1 µM.
Setting [14] is: second compound 1 µM, first compound 0.0316 µM.
[15] abbreviates: second compound 1 µM, first compound 0.1 µM.
Where [16] appears, read: second compound 1 µM, first compound 0.316 µM.
The mark [17] stands for this setting: second compound 1 µM, first compound 1 µM.
[18] abbreviates: second compound 3.16 µM, first compound 0.0316 µM.
Setting [19] is: second compound 3.16 µM, first compound 0.1 µM.
Setting [20] is: second compound 3.16 µM, first compound 0.316 µM.
Setting [21] is: second compound 3.16 µM, first compound 1 µM.
Setting [22] is: second compound 10 µM, first compound 0.0316 µM.
Where [23] appears, read: second compound 10 µM, first compound 0.1 µM.
The mark [24] stands for this setting: second compound 10 µM, first compound 0.316 µM.
The mark [25] stands for this setting: second compound 10 µM, first compound 1 µM.
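Further: exposure lasted 7 days after dosing on day 3 of spheroid growth.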

Regarding `CC(C)c1c(-c2ccccc2)nc2c(C#N)c[nH]n2c1=O`, the viability, T/C reads like this: (compound 0.0316 µM) 101% and 93.4% and 95%; (compound 0.1 µM) 107% and 97.3% and 110%; (compound 0.316 µM) 109% and 96% and 82.6%; (compound 1 µM) 98.6% and 98% and 68.8%; (compound 3.16 µM) 110% and 100% and 82.2%; (compound 10 µM) 105% and 102% and 77.7%. Further, under “curve of compound”, the pIC50 was under 5.00.
In the case of `CC(CO)NC(=O)c1cc(-c2ccc(Cl)cc2)nn(-c2cnn(C)c2)c1=O` (stereo unspecified), the negative-log IC50 (pIC50) (compound alone, run of 05/31/2022) is under 5.00.
Consider `CC1COCCN1c1cc(C2(S(C)(=N)=O)CC2)nc(-c2ccnc3[nH]ccc23)n1` (stereo unspecified), for which the viability, T/C is 99.7% and 109% and 114% (compound 0.0316 µM); 97.4% and 97.5% and 101% (compound 0.1 µM); 106% and 101% and 71.2% (compound 0.316 µM); 88.5% and 99.6% and 63.6% (compound 1 µM); 76% and 80.4% and 89.1% (compound 3.16 µM); 48.9% and 56.1% and 102% (compound 10 µM). Under “curve of compound”, the negative-log IC50 (pIC50) is 5.02 and < 5.00.
For the compound `COc1ccc([C@@H](O)c2cc(-c3ncnc4cc(N5CCOCC5)ccc34)c(F)cc2Cl)nn1`, the viability, T/C reads like this: (compound 0.0316 µM) 110% and 102% and 97.7%; (compound 0.1 µM) 110% and 106% and 123%; (compound 0.316 µM) 86.4% and 91.7% and 70%; (compound 1 µM) 69.8% and 77.5% and 73.8%; (compound 3.16 µM) 54.8% and 51.5% and 64.2%; (compound 10 µM) 36.5% and 39.1% and 48.6%. Also, under “curve of compound”, the pIC50 is 5.43 and 5.41 and < 5.00.
In the case of `Cc1ccccc1N=Nc1ccc(NC(=O)c2ccnn2C)c(C)c1`, the viability, T/C by setting is: (compound 0.1 µM) 90.3% [middle of 20 runs]; (compound 0.316 µM) 84.6% [middle of 20 runs]; (compound 1 µM) 84.5% [middle of 19 runs]; (compound 3.16 µM) 77% [middle of 20 runs]; (compound 10 µM) 77% [middle of 21 runs]. For the same compound, the pIC50 (compound alone, run of 06/14/2022) is under 5.00.
As to `Cc1cncc(-c2nc(NCCc3c[nH]c4ccccc34)c3ncn(C(C)C)c3n2)c1`, the viability, T/C is 88.2% [middle of 19 runs] (compound 0.1 µM), 95.8% [middle of 20 runs] (compound 1 µM) and 51.4% [middle of 21 runs] (compound 10 µM).
In the case of `COc1cccc2c1C(=O)c1c(O)c3c(c(O)c1C2=O)CC(O)(C(=O)CO)CC3OC1CC(N)C(O)C(C)O1` (stereo unspecified) + CC(CO)NC(=O)c1cc(-c2ccc(Cl)cc2)nn(-c2cnn(C)c2)c1=O, the pIC50 under setting [1] is 6.57; the negative logarithm of the IC50 (pIC50) under setting [2] was 6.34; the pIC50 under setting [3] is 6.30; the pIC50 under setting [4] is 6.64; the pIC50 under setting [5] is 6.78. For the same compound, the viability, T/C is, setting by setting: under setting [6], 115%; under setting [7], 116%; under setting [8], 39.2%; under setting [9], 4.71%; (second compound 0.1 µM, first compound 3.16 µM) 2.59%; (second compound 0.1 µM, first compound 10 µM) 1.67%. In addition, the viability, T/C reads like this: under setting [10], 90.5%; under setting [11], 94.2%; under setting [12], 70.9%; under setting [13], 4.94%; (second compound 0.316 µM, first compound 3.16 µM) 5.79%; (second compound 0.316 µM, first compound 10 µM) 4.67%. The viability, T/C was 95.2% under setting [14]; 93.9% under setting [15]; 82.1% under setting [16]; 1.75% under setting [17]; 2.44% (second compound 1 µM, first compound 3.16 µM); 1.47% (second compound 1 µM, first compound 10 µM). In addition, the viability, T/C by setting is: under setting [18], 91.5%; under setting [19], 107%; under setting [20], 31.2%; under setting [21], 3.13%; (second compound 3.16 µM, first compound 3.16 µM) 3.56%; (second compound 3.16 µM, first compound 10 µM) 0.65%. Further, the viability, T/C under setting [22] is 113%; the viability, T/C under setting [23] is 65.8%; the viability, T/C under setting [24] was 32.6%; the viability, T/C under setting [25] is 1.76%; the viability, T/C (second compound 10 µM, first compound 3.16 µM) was 1.75%; the viability, T/C (second compound 10 µM, first compound 10 µM) was 1.1%.
In the case of `Nc1ncn(C2CC(O)C(CO)O2)c(=O)n1` (stereo unspecified) + CC(CO)NC(=O)c1cc(-c2ccc(Cl)cc2)nn(-c2cnn(C)c2)c1=O, the pIC50 by setting is: under setting [1], under 6.00; under setting [2], under 6.00; under setting [3], under 6.00; under setting [4], under 6.00; under setting [5], under 6.00. The viability, T/C (second compound 0.1 µM, first compound 0.00316 µM) was 101%; the viability, T/C (second compound 0.1 µM, first compound 0.01 µM) is 79.9%; the viability, T/C under setting [6] was 76.8%; the viability, T/C under setting [7] is 72.5%; the viability, T/C under setting [8] was 81.7%; the viability, T/C under setting [9] was 82.3%. In addition, the viability, T/C (second compound 0.316 µM, first compound 0.00316 µM) was 67.2%; the viability, T/C (second compound 0.316 µM, first compound 0.01 µM) was 90.2%; the viability, T/C under setting [10] was 101%; the viability, T/C under setting [11] was 76.4%; the viability, T/C under setting [12] is 71.7%; the viability, T/C under setting [13] was 89.7%. Moreover, the viability, T/C reads like this: (second compound 1 µM, first compound 0.00316 µM) 90.7%; (second compound 1 µM, first compound 0.01 µM) 60.6%; under setting [14], 78.8%; under setting [15], 72.1%; under setting [16], 75.1%; under setting [17], 78.8%. Besides, the viability, T/C (second compound 3.16 µM, first compound 0.00316 µM) is 83.3%; the viability, T/C (second compound 3.16 µM, first compound 0.01 µM) is 61.1%; the viability, T/C under setting [18] is 81%; the viability, T/C under setting [19] is 76.8%; the viability, T/C under setting [20] was 56.8%; the viability, T/C under setting [21] is 78.1%. Besides, the viability, T/C (second compound 10 µM, first compound 0.00316 µM) was 59%; the viability, T/C (second compound 10 µM, first compound 0.01 µM) was 84.8%; the viability, T/C under setting [22] is 115%; the viability, T/C under setting [23] is 93.1%; the viability, T/C under setting [24] was 75.7%; the viability, T/C under setting [25] was 81.2%.
